Molecular target: Histone-lysine N-methyltransferase EZH2 (Homo sapiens, UniProt Q15910)
Test: Inhibition of EZH2 Y641F mutant in PRC2 complex (unknown origin) using RKQLATKAARK(Me3)SAPATGGVKKP-NH2 peptide substrate preincubated for 30 mins followed by addition of [3H]-SAM measured after 2 hrs by Topcount scintillation proximity assay

Compound	IC50 [nM]
CCOC(=O)CN1CCC([C@@H](C)n2c(C)c(C(=O)NCc3c(OC)cc(C)[nH]c3=O)c3ccccc32)CC1	2.5
COc1cc(C)[nH]c(=O)c1CNC(=O)c1c(C)n([C@H](C)C2CCN(C(=O)N(C)C)CC2)c2ccccc12	8.9
COc1cc(C)[nH]c(=O)c1CNC(=O)c1c(C)n([C@H](C)C2CCN(CC(F)(F)C(F)F)CC2)c2ccccc12	3.3
COc1cc(C)[nH]c(=O)c1CNC(=O)c1c(C)n([C@H](C)C2CCN(C)CC2)c2ccccc12	1.7
COc1cc(C)[nH]c(=O)c1CNC(=O)c1c(C)n([C@H](C)C2CCN(C3COC3)CC2)c2ccccc12	1.7
COc1cc(C)[nH]c(=O)c1CNC(=O)c1c(C)n([C@H](C)C2CCN(CCC(F)(F)F)CC2)c2ccccc12	4.8
COc1cc(C)[nH]c(=O)c1CNC(=O)c1c(C)n([C@H](C)C2CCN(C(=O)OC(C)C)CC2)c2ccccc12	4.1
COc1cc(C)[nH]c(=O)c1CNC(=O)c1c(C)n([C@H](C)C2CCN(C(=O)C(C)C)CC2)c2ccccc12	16
COc1cc(C)[nH]c(=O)c1CNC(=O)c1c(C)n([C@H](C)C2CCN(CC(F)F)CC2)c2ccccc12	3.8
COc1cc(C)[nH]c(=O)c1CNC(=O)c1c(C)n([C@H](C)C2CCNCC2)c2ccccc12	3.9

— BindingDB's records for doi:10.1021/acs.jmedchem.6b01315 (Constellation Pharmaceuticals, 2016)
